Measurements published in PubChem BioAssay (NCI).
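96-well plates; 48 h exposure; 5 concentrations. Endpoints by linear interpolation between flanking doses. Not reached: highest tested concentration assigned. TGI marks complete inhibition of growth.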

Columns and labels:
Assay in all cases: inhibition of tumour cell growth, NCI panel, 48 h
SF-295 CNS = system: SF-295 CNS
KM12 colon = system: KM12 colon
SK-MEL-2 melanoma = system: SK-MEL-2 melanoma
HL-60(TB) leukemia = system: HL-60(TB) leukemia
RXF 393 renal = system: RXF 393 renal
RPMI-8226 leukemia = system: RPMI-8226 leukemia
SNB-75 CNS = system: SNB-75 CNS
SR leukemia = system: SR leukemia
OVCAR-4 ovarian = system: OVCAR-4 ovarian
MDA-N = system: MDA-N
786-0 renal = system: 786-0 renal
SF-268 CNS = system: SF-268 CNS
T-47D breast = system: T-47D breast
NCI-H23 lung = system: NCI-H23 lung
IGROV1 ovarian = system: IGROV1 ovarian
TK-10 renal = system: TK-10 renal
MALME-3M melanoma = system: MALME-3M melanoma
HT29 colon = system: HT29 colon
SF-539 CNS = system: SF-539 CNS
HS 578T breast = system: HS 578T breast

SMILES	TGI (SF-295 CNS) [µM]	TGI (KM12 colon) [µM]	TGI (SK-MEL-2 melanoma) [µM]	TGI (HL-60(TB) leukemia) [µM]	TGI (RXF 393 renal) [µM]	TGI (RPMI-8226 leukemia) [µM]	TGI (SNB-75 CNS) [µM]	TGI (SR leukemia) [µM]	TGI (OVCAR-4 ovarian) [µM]	TGI (MDA-N) [µM]	TGI (786-0 renal) [µM]	TGI (SF-268 CNS) [µM]	TGI (T-47D breast) [µM]	TGI (NCI-H23 lung) [µM]	TGI (IGROV1 ovarian) [µM]	TGI (TK-10 renal) [µM]	TGI (MALME-3M melanoma) [µM]	TGI (HT29 colon) [µM]	TGI (SF-539 CNS) [µM]	TGI (HS 578T breast) [µM]
CC(C)CCNC(=O)c1ccc(CNC(=O)/C=C/c2ccc(-c3ccccc3[N+](=O)[O-])o2)cc1	> 100	> 100	> 100	> 100	> 100	> 100	> 100	> 100	55.3	> 100	> 100	63.1	63.5	> 100						
COc1ccc(C2=C(OC(C)=O)c3cccn3-c3ccccc3S2)cc1	5.03	> 10		4.57	6.44	> 10	> 10	> 10	> 10	1.44	> 10	> 10	> 10	7.73	> 10	> 10	> 10	> 10		
CCOc1ccc(N=Cc2cc(OC)c(OC)c(OC)c2)cc1	> 100	> 100	> 100	> 100	> 100	45.1	> 100		> 100		> 100	> 100		> 100	> 100	> 100	> 100	> 100	> 100	
CCC(C)(C)NC1=C(NC(C)=O)C(=O)c2ccccc2C1=O	> 75	> 75	58.2	43	> 75		> 75	> 75	> 75		> 75	> 75		73.7	> 75	> 75	> 75	> 75	> 75	
c1ccc2cc3n[se]nc3cc2c1	> 100	> 100	> 100	> 100	> 100	> 100	> 100		> 100			> 100		> 100	> 100	> 100	> 100	> 100	> 100	
CCC12C=CCN3CC[C@]4(C(=C(C(=O)OC)[C@@H]1Nc1ccn(C5OC(COC(C)=O)C(OC(C)=O)C5OC(C)=O)c(=O)n1)Nc1ccccc14)C32 (some centres not stated)	10.2	2.54	5.58	12.6	6.45	14.7	7.63	10.2	3.57		8.9	10.9		3.43	9.68	10.1	9.74	8.4	9.17	
CN1c2ccccc2C2c3c(O)ccc(O)c3C=C([N+](=O)[O-])C21 (configuration not stated)	8.29	1.82	7.08	3.17	15.5		> 24.2	> 24.8	2.81	1.5	2.13	6.54	> 100	5.61	5.87	23.3		0.568	4.45	
CC1=NN(C(=O)c2ccc(Cl)cc2)C(=O)/C1=C/c1cccc(O)c1	> 100	> 100	> 100	> 100	> 100	> 100			> 100		> 100	> 100		> 100	> 100	> 100	> 100	> 100	> 100	
CC(O[Si](C)(C)C(C)(C)C)[C@H](NC(=O)OCC(Cl)(Cl)Cl)C(=O)O (some centres not stated)	> 100	> 100		> 100	> 100	> 100		> 100	> 100		> 100	> 100	> 100	> 100	> 100	> 100	> 100	> 100	> 100	> 100
CC(C)(C)C1CCC2c3c([nH]c4ccccc34)C3C(=O)N(c4ccc(Br)cc4)C(=O)C3C2C1 (configuration not stated)	63.1	53.8	54.6	29.5		38.6	54.8		41.5		37.3	49.8		38.1	48	42	> 100	44.3	38.7	
C[n+]1c2ccccc2c(NC(CCC(N)=O)C(=O)O)c2ccccc21 (configuration not stated)	> 100	> 100	> 100	> 100	> 100	> 100	> 100	> 100	> 100		> 100	> 100		> 100	> 100	> 100	> 100	> 100	> 100	
CC1=CCC2(C#N)CCC1C2=O (configuration not stated)	> 100	> 100	> 100	> 100		> 100		> 100	> 100		> 100	> 100		> 100	> 100	> 100	> 100	> 100	> 100	
Nc1nc(=O)n(C2OC(CO)C(O)C2O)cc1F (configuration not stated)	> 100	> 100	> 100		> 100	> 100	> 56.4		> 100			> 100		> 100	> 100			> 100	> 100	
Cc1ccc2c(c1)NC(=O)C(N=[N+]=[N-])(c1ccccc1)C2=O (configuration not stated)	78.1	40	36.2	37.5			> 100	56.7	> 100		> 100	> 100		45.9	> 100	> 100	71.6	43.9	81.5	
Cc1cc2c3c(ccc4ncc(c43)CN2c2ccc(NS(C)(=O)=O)cc2)[nH]1	> 100	> 100	> 100	> 100	> 100	55.3	44.3		> 100	> 100	23.5	51.5		> 100	> 100	73.1		> 100		> 100
CCN(CC)CC(C)(C)C(=O)/C=C/c1ccc(C)cc1	26.1	19	25.7		21.6		23.5	26.8	24.4		23.2	22.1				27.9	21.7	12.3	26.2	
CCCCCCCCCCCCCCCCCC(=O)NCCCNCCCNC(=O)CCCCCCCCCCCCCCCCC	> 100			> 100		> 100			> 100		> 100	> 100		> 100	> 100	> 100	> 100	> 100		
Cc1sc(N=Nc2c(O)[nH]c3ccccc23)nc1-c1ccccc1	29.1	43.7	49.5	25	34.9		47		42.3	76.4	36.6	38.5	33.1	34.6	27.1	59.2		54.5	37.5	
O=[N+]([O-])c1cc(Cl)ccc1S(=O)(=O)c1ccccc1	> 100	> 100	53.8	> 100	> 100	> 100	> 100		> 100		> 100	> 100	> 100	> 100	> 100	> 100	> 100	> 100	> 100	> 100
Cc1ccc(N2C(=O)/C(=c3\s/c(=C(/N)O)c(=N)n3-c3ccccc3)SC2=S)cc1	> 100	> 100		> 100		> 100	28					> 100		> 100	> 100	> 100		> 100	> 100	
CNC(=O)N(CCC#N)CCN(CCN(C(=O)NC)c1ccccc1)C(=O)NC	> 100	> 100	> 100		> 100	> 100	> 100	> 100	> 100	> 100	> 100		> 100	> 100	> 100	> 100	> 100	> 100	> 100	
c1ccc(C2CC(N3CCOCC3)=Nc3ccccc3N2)cc1 (configuration not stated)	> 100	> 100	> 100	> 100	> 100	> 100			> 100	> 100	> 100	> 100		> 100	> 100	> 100	> 100	> 100	> 100	> 100
CCNC1CC(C(C)(C)NCC)CC=C1C (configuration not stated)	> 100	> 100		> 100			> 100	> 100	> 100	> 100	> 100	> 100	> 100	> 100	> 100	> 100		> 100	> 100	
